Data from US20240398822A1, “METHODS AND COMPOSITIONS FOR TREATING AND MANAGING ALZHEIMER'S DISEASE” (Pharmatrophix, Inc., priority 2021, published 2024).
Entries after “also recorded” stand apart in the source; their conditions may differ. Read-outs that look alike come from different tables or passages of the source.

Legend:
[1] = system: CSF biomarkers; assay: Phase IIa CSF biomarkers, whole panel; format: in vivo, human
Text: (§1) CSF samples were obtained at screening Visit and final Visit via lumbar puncture to determine levels of tau, p-tau, Aβ40, Aβ42 and AChE activity as an initial set of CSF biomarkers. Aliquots of CSF were made available for emerging CSF biomarker methods such as measurement of additional biomarkers including neurofilaments light chain, neurogranin, SNAP-25, synaptotagmin, YKL-40, TREM2, tau oligomers and for measurement of drug level in selected patients based on the time period between last dose of drug and CSF sampling (FIG. 25 and FIG. 58).
(§2) Baseline CSF samples are obtained prior to administration via lumbar puncture. These samples are used to determine levels of tau, p-tau, Aβ40, Aβ42, AChE, neurofilament light chain, SNAP-25, synaptotagmin-1, neurogranin, sTREM, and YKL-40. Aliquots of CSF are also made available for emerging CSF biomarker methods such as measurement of tau oligomers and for measurement of drug level in selected patients based on time period between last dose of the salt of Formula (II) and CSF sampling. […] Many of these biomarkers can also be measured in blood or plasma. The change in values over the time period from pre-treatment to post-treatment are of particular importance. […]

[2] = system: SYT1; assay: Phase IIa CSF pre-synaptic biomarker SYT1; format: in vivo, human
Text: as §1, §2

[3] = Phase I (1b) systemic pharmacokinetics, 600 mg b.i.d. for 10 days; format: in vivo, human; details: for Cmax: human, plasma, po, 600 mg, 600 mg b.i.d. oral, 8 subjects, read-out: Cmax, systemic, arithmetic mean
Protocol: A phase 1b studied was conducted in 10 elderly normal subjects for the purpose of obtaining plasma and CSF coordinated drug levels and to further assess safety at a dose of 600 mg bid over a 10-day period. The study was double-blinded and placebo controlled with 8 subjects receiving drug.

[4] = Phase 1 SAD/MAD pharmacokinetics; format: in vivo; details: in vivo
Text: The phase 1 study was placebo controlled and double blinded and included 52 subjects in SAD studies and 20 subjects in MAD studies.

[5] = system: patients with mild to moderate Alzheimer's disease; assay: Phase IIa safety and tolerability (adverse events, vital signs, ECG, MRI, laboratory); format: in vivo, human; details: for subjects who discontinued the phase 2a trial due to AEs or SAEs: of 16 subjects in total; for course of the increase in eosinophil level: also where treatment was continued; for overall safety and tolerability: phase IIa
Text: Safety monitoring included the full extent of phase 2 clinical and laboratory testing.
For all safety evaluations, only an overall ‘Safety’ population is described. This includes all patients who received at least one dose of medication and consider all patients according to the treatment they actually receive. Additionally, a PK population will be described for only patients receiving active study IMP.

[6] = system: neurogranin; assay: Phase IIa CSF post-synaptic biomarker neurogranin (NG-36); format: in vivo, human
Text: as §1
Baseline CSF samples are obtained prior to administration via lumbar puncture. These samples are used to determine levels of tau, p-tau, Aβ40, Aβ42, AChE, neurofilament light chain, SNAP-25, synaptotagmin-1, neurogranin, sTREM, and YKL-40. Aliquots of CSF are also made available for emerging CSF biomarker methods such as measurement of tau oligomers and for measurement of drug level in selected patients based on time period between last dose of the salt of Formula (II) and CSF sampling. […] Many of these biomarkers can also be measured in blood or plasma. The change in values over the time period from pre-treatment to post-treatment are of particular importance. […] Absolute levels at single time points of neurofilament light chain, SNAP-25, synaptotagmin-1, neurogranin, sTREM, and YKL-40 in CSF or blood or plasma are of less value given differences in assay techniques and wide variation in absolute levels within normal subjects and within and across AD subjects. In contrast, absolute levels of Aβ42 and 40 at baseline are useful biomarkers indicating the presence of amyloid pathology as low levels of Aβ42 and 40 at a given time point are consistent with amyloid pathology.

[7] = 200 mg bid (N = 78), 26 weeks, safety population
[8] = 200 mg bid (N = 78), 26 weeks, safety population, listed as LM11A
[9] = 200 mg bid (N = 78), 26 weeks, safety population, listed as LM11A-31
[10] = 400 mg bid (N = 83), 26 weeks, safety population
[11] = 400 mg bid (N = 83), 26 weeks, safety population, listed as LM11A
[12] = 400 mg bid (N = 83), 26 weeks, safety population, listed as LM11A-31

CC[C@H](C)[C@H](N)C(=O)NCCN1CCOCC1 [LM11A-31-BHS, Tris[(2S,3S)-2-amino-3-methyl-N-(2-morpholinoethyl)pentanamide] tetra(monohydrogensulfate), monosulfate]
drug effect across all CSF biomarkers by age group ([1]; <72 years versus >=72 years): the drug effect was in general greater in the younger versus older group | effect on biomarkers indicating neuronal degeneration, gliosis and neuro-inflammation ([1]; CSF, pre-treatment to post-treatment): ability to slow progression of increase of biomarkers indicating neuronal degeneration, gliosis and neuro-inflammation | CSF SYT1 levels, drug dose analysis ([2]; 200 and 400 mg doses): only nominal reductions below baseline at both doses | CSF SYT1 change in the drug group ([2]; combined drug group, 6 months, p=0.06): trend for a decrease | linearity of pharmacokinetics ([3]; 600 mg BID during 10 days): linear | Cmax ([3]; day 1): 1.27 µg/mL | Cmax ([3]; day 10): 0.885 µg/mL | food effect ([4]; human): fed subjects having a higher LM11A-31 parent exposure than fasted subjects | time to reach steady state upon multiple dosing ([4]; human): approximately 5 days post dose | gender difference in exposure [4]: female subjects having a greater exposure than males | pharmacokinetics after single oral doses ([4]; po): linear pharmacokinetics | patients discontinued because of AEs ([5]; 200 mg bd, safety population): 2 patients | patients discontinued because of serious AE ([5]; 200 mg bd, safety population): 0 patients | AEs Leading To Discontinuation of Study IMP, % of patients [5, 7]: 6.4% | AEs Leading To Discontinuation of Study IMP, freq (events) [5, 7]: 5 | AEs Leading To Discontinuation of Study IMP, n (patients) [5, 7]: 5 | Adverse events, Drug Relationship: Not Related, % of patients [5, 7]: 52.6% | Adverse events, Drug Relationship: Not Related, freq (events) [5, 7]: 85 | Adverse events, Drug Relationship: Not Related, n (patients) [5, 7]: 41 | Adverse events, Drug Relationship: Related, freq (events) [5, 7]: 15 | Adverse events, Drug Relationship: Related, n (patients) [5, 7]: 12 | Adverse events, Intensity: Mild, freq (events) [5, 7]: 86 | Adverse events, Intensity: Mild, n (patients) [5, 7]: 40 | Adverse events, Intensity: Moderate, freq (events) [5, 7]: 12 | Adverse events, Intensity: Moderate, n (patients) [5, 7]: 11 | Adverse events, Intensity: Severe, freq (events) [5, 7]: 2 | Adverse events, Intensity: Severe, n (patients) [5, 7]: 2 | All Adverse Events, % of patients [5, 7]: 60.3% | All Adverse Events, freq (events) [5, 7]: 109 | All Adverse Events, n (patients) [5, 7]: 47 | Serious AEs, % of patients [5, 7]: 2.6% | Serious AEs, freq (events) [5, 7]: 2 | Serious AEs, n (patients) [5, 7]: 2 | Treatment Emergent Adverse Events (TEAEs), % of patients [5, 7]: 59.0% | Treatment Emergent Adverse Events (TEAEs), freq (events) [5, 7]: 100 | Treatment Emergent Adverse Events (TEAEs), n (patients) [5, 7]: 46 | Adverse events, Intensity: Severe, % of patients ([5]; 200 mg bid (N = 78), 26 weeks, safety population, listed as LM1 1A-31): 6% | Adverse events, Drug Relationship: Related, % of patients [5, 8]: 15.4% | Adverse events, Intensity: Moderate, % of patients [5, 8]: 14.1% | Adverse events, Intensity: Severe, % of patients [5, 8]: 2.6% | Adverse events, Drug Relationship: Related, % of patients [5, 9]: 15% | Adverse events, Intensity: Moderate, % of patients [5, 9]: 14% | Adverse events, Intensity: Severe, % of patients [5, 9]: 3% | Pre-Treatment Signs and Symptoms (PTSS), % of patients ([5]; 200 mg bid group (N = 78)): 10.3% | Pre-Treatment Signs and Symptoms (PTSS), freq (events) ([5]; 200 mg bid group (N = 78)): 9 | Pre-Treatment Signs and Symptoms (PTSS), n (patients) ([5]; 200 mg bid group (N = 78)): 8 | share of the 10 severe TEAEs ([5]; 200 mg group): 20% | subjects with GI side effects (diarrhea in most cases) ([5]; 200 mg group): approximately 8% | subjects who discontinued the phase 2a trial due to AEs or SAEs ([5]; 200 mg group): 2 subjects | patients discontinued because of AEs ([5]; 400 mg bd, safety population): 8 patients | patients discontinued because of serious AE ([5]; 400 mg bd, safety population): 3 patients | AEs Leading To Discontinuation of Study IMP, % of patients [5, 10]: 18.1% | AEs Leading To Discontinuation of Study IMP, freq (events) [5, 10]: 20 | AEs Leading To Discontinuation of Study IMP, n (patients) [5, 10]: 15 | Adverse events, Drug Relationship: Not Related, % of patients [5, 10]: 57.8% | Adverse events, Drug Relationship: Not Related, freq (events) [5, 10]: 150 | Adverse events, Drug Relationship: Not Related, n (patients) [5, 10]: 48 | Adverse events, Drug Relationship: Related, freq (events) [5, 10]: 23 | Adverse events, Drug Relationship: Related, n (patients) [5, 10]: 13 | Adverse events, Intensity: Mild, freq (events) [5, 10]: 119 | Adverse events, Intensity: Mild, n (patients) [5, 10]: 46 | Adverse events, Intensity: Moderate, freq (events) [5, 10]: 49 | Adverse events, Intensity: Moderate, n (patients) [5, 10]: 24 | Adverse events, Intensity: Severe, freq (events) [5, 10]: 5 | Adverse events, Intensity: Severe, n (patients) [5, 10]: 5 | All Adverse Events, % of patients [5, 10]: 66.3% | All Adverse Events, freq (events) [5, 10]: 185 | All Adverse Events, n (patients) [5, 10]: 55 | Serious AEs, % of patients [5, 10]: 8.4% | Serious AEs, freq (events) [5, 10]: 7 | Serious AEs, n (patients) [5, 10]: 7 | Treatment Emergent Adverse Events (TEAEs), % of patients [5, 10]: 65.1% | Treatment Emergent Adverse Events (TEAEs), freq (events) [5, 10]: 173 | Treatment Emergent Adverse Events (TEAEs), n (patients) [5, 10]: 54 | Adverse events, Drug Relationship: Related, % of patients [5, 11]: 15.7% | Adverse events, Intensity: Moderate, % of patients [5, 11]: 28.9% | Adverse events, Intensity: Severe, % of patients [5, 11]: 6.0% | Adverse events, Drug Relationship: Related, % of patients [5, 12]: 15% | Adverse events, Intensity: Moderate, % of patients [5, 12]: 29% | Pre-Treatment Signs and Symptoms (PTSS), % of patients ([5]; 400 mg bid group (N = 83)): 9.6% | Pre-Treatment Signs and Symptoms (PTSS), freq (events) ([5]; 400 mg bid group (N = 83)): 12 | Pre-Treatment Signs and Symptoms (PTSS), n (patients) ([5]; 400 mg bid group (N = 83)): 8 | share of the 10 severe TEAEs ([5]; 400 mg group): 50% | subjects with GI side effects (diarrhea in most cases) ([5]; 400 mg group): approximately 35% | subjects who discontinued the phase 2a trial due to AEs or SAEs ([5]; 400 mg group): 11 subjects | subjects receiving treatment with eosinophilia reported as an adverse event ([5]; 200 and 400 mg groups together): 10 subjects | adverse events, drug groups compared with placebo ([5]; AEs otherwise similar between placebo and drug groups): higher rates in the drug group of nasopharyngitis, GI symptoms including diarrhea and transient, asymptomatic blood eosinophilia | course of the increase in eosinophil level [5]: declined to normal levels | course of the increase in eosinophil level ([5]; listed as salt of Formula (II)): transient | life-threatening (Grade 4) adverse events ([5]; any group, 26 weeks): no life-threatening (Grade 4) adverse events | heart rate and body temperature ([5]; during the visits): no clinically significant changes | rate of several adverse events, 400 mg versus 200 mg ([5]; for some events statistically significant): higher for the 400 mg group | MRI-based safety analysis ([5]; in vivo): no drug related adverse outcomes including hemorrhage or edema; also recorded: no events that raised any concern about the drug safety | safety laboratory and urine analysis ([5]; in vivo): did not show any patterns of concern | overall safety and tolerability ([5]; 26 weeks): no results raised any concerns about the safety | overall safety and tolerability ([5]; 26 weeks, listed as salt of Formula (II)): no serious adverse events occurred that raised concerns about the tolerability of the drug | 12-lead ECG ([5]; safety population): no relevant changes; also recorded: No significant changes | blood pressure ([5]; safety population): no relevant changes; also recorded: No significant changes | vital signs ([5]; safety population): no relevant changes; also recorded: No significant changes | highest eosinophil level reached ([5]; treatment group): ≤ 5000 per μl | subjects with eosinophil counts transiently above 500 per μl ([5]; verum group): 73 subjects | subjects with increased eosinophil value considered clinically significant ([5]; week 4): 11 subjects | CSF neurogranin-36, drug dose analysis ([6]; 200 mg dose versus placebo): significant lowering of NG-36 | CSF neurogranin-36, drug dose analysis ([6]; 400 mg dose versus placebo): trend for reduction | CSF neurogranin levels in the drug group ([6]; combined drug group, 6 months, p=0.02): significant decrease
